According to the Kinase Knowledgebase extract (Sharma et al. 2016):
≈ marks a conversion by molar mass, not a printed value.

How the values were obtained:
EGFR (human) [1] = molecular target: EGFR (human) (UniProt P00533)
EGFR = EGFR (UniProt P00533)
EGFR (human) [2] = molecular target: EGFR (human) (UniProt P00533); details: a2780s
EGFR (human) [3] = molecular target: EGFR (human) (UniProt P00533); details: mb435
EGFR (human) [4] = molecular target: EGFR (human) (UniProt P00533); details: a2780ddp
EGFR (human) [5] = molecular target: EGFR (human) (UniProt P00533); details: mcf-7
EGFR (human) [6] = molecular target: EGFR (human) (UniProt P00533); details: sw-620
EGFR (human) [7] = molecular target: EGFR (human) (UniProt P00533); details: lox
EGFR (human) [8] = molecular target: EGFR (human) (UniProt P00533); details: a431
EGFR (human) [9] = molecular target: EGFR (human) (UniProt P00533); details: skbr3

Chain of EGFR (human) (P00533 whole entry, looked up): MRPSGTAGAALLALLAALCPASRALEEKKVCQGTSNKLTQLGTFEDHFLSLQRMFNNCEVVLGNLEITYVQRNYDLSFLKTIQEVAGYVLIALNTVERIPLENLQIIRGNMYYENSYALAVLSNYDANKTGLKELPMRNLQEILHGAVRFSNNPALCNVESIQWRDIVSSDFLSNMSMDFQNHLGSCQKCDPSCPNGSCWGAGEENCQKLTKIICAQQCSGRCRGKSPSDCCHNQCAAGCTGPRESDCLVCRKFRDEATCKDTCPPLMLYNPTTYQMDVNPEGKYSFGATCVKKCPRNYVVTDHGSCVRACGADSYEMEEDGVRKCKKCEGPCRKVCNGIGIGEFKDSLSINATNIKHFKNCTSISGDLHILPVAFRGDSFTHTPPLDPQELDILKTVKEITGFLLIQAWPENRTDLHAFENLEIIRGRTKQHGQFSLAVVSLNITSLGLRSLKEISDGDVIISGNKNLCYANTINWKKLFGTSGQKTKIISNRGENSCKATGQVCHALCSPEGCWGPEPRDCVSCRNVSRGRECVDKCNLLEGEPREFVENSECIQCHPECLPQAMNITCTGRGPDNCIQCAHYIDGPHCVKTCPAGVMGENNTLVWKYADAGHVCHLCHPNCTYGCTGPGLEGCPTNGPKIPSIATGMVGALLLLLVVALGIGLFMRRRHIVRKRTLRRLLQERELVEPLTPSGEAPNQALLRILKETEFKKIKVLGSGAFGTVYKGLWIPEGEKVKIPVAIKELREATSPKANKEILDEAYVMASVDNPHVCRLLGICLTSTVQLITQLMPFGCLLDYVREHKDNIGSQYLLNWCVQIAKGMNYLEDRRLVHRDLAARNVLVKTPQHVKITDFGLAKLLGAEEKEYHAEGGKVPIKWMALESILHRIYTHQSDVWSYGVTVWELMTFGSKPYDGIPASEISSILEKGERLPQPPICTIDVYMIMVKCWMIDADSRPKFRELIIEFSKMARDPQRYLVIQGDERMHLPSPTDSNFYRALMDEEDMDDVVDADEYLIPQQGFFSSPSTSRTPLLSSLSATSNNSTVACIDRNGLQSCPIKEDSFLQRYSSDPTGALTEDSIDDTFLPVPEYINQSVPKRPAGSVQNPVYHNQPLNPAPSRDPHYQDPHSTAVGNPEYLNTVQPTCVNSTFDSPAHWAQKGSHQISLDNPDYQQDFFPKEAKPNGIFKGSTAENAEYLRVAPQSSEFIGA
Chain of EGFR (P00533 whole entry, looked up): as above

| IC50 (EGFR (human) [1]) [nM] | IC50 (EGFR) [nM] | IC50 (EGFR (human) [2]) [µg/mL] | IC50 (EGFR (human) [3]) [µg/mL] | IC50 (EGFR (human) [4]) [µg/mL] | IC50 (EGFR (human) [5]) [µg/mL] | IC50 (EGFR (human) [6]) [µg/mL] | IC50 (EGFR (human) [7]) [µg/mL] | IC50 (EGFR (human) [8]) [µg/mL] | IC50 (EGFR (human) [9]) [µg/mL] | Structure (SMILES) |
| --- | --- | --- | --- | --- | --- | --- | --- | --- | --- | --- |
| 0.84 |  |  |  |  |  |  |  |  |  | CSSC(C)C(=O)Nc1ccc2ncnc(Nc3cccc(Br)c3)c2c1 (centres undefined) |
|  | 0.005 | 0.8 (≈ 1.71 µM) | 4.5 (≈ 9.61 µM) | 4 (≈ 8.54 µM) | 17 (≈ 36.3 µM) | 5.5 (≈ 11.7 µM) | 3.9 (≈ 8.33 µM) | 0.6 (≈ 1.28 µM) |  | C=C(CN1CCOCC1)C(=O)Nc1ccc2ncnc(Nc3cccc(Br)c3)c2c1 |
|  | 0.01 |  |  |  |  |  |  |  |  | O=C(/C=C/CBr)Nc1ccc2ncnc(Nc3cccc(Br)c3)c2c1 |
|  | 0.075 | 22 (≈ 48.4 µM) | 45 (≈ 99 µM) | 43 (≈ 94.6 µM) | 59 (≈ 130 µM) | 52 (≈ 114 µM) | 46 (≈ 101 µM) | 0.01 (≈ 0.022 µM) | < 0.01 | CCN(CC)C/C=C/C(=O)Nc1ccc2ncnc(Nc3cccc(Br)c3)c2c1 |
